Measured values: the NIST ThermoML archive (doi:10.1021/je200856f)

Experiment: mn = molality of the nth substance listed, in mol/kg
Conditions: 101 kPa, Liquid; for mass density: Vibrating tube method; for electrical conductivity: Wheatstone bridge equipment

C[N+](C)(C)CCCl.[Cl-] [2-chloro-N,N,N-trimethylethanaminium chloride] + O
Conditions | electrical conductivity [S/m] | mass density [kg/m3] | viscosity [mPa·s]
278.15 K, m1 = 0.0236 | – | – | 1.526
278.15 K, m1 = 0.0464 | – | – | 1.536
278.15 K, m1 = 0.0506 | – | 1001.45 | –
278.15 K, m1 = 0.0994 | – | – | 1.555
278.15 K, m1 = 0.1009 | – | 1002.89 | –
278.15 K, m1 = 0.2364 | – | 1006.79 | –
278.15 K, m1 = 0.2464 | – | – | 1.61
278.15 K, m1 = 0.3552 | – | – | 1.656
278.15 K, m1 = 0.499 | – | – | 1.712
278.15 K, m1 = 0.501 | – | 1013.92 | –
278.15 K, m1 = 0.6479 | – | – | 1.778
278.15 K, m1 = 0.6523 | – | 1017.88 | –
278.15 K, m1 = 0.7493 | – | – | 1.815
278.15 K, m1 = 0.7529 | – | 1020.46 | –
278.15 K, m1 = 0.9041 | – | – | 1.914
278.15 K, m1 = 0.9927 | – | – | 1.933
278.15 K, m1 = 1.176 | – | – | 2.01
278.15 K, m1 = 1.2 | – | 1031.18 | –
278.15 K, m1 = 1.497 | – | 1038.13 | –
278.15 K, m1 = 1.542 | – | – | 2.298
278.15 K, m1 = 1.986 | – | 1048.24 | –
278.15 K, m1 = 2.148 | – | – | 2.612
288.15 K, m1 = 0.0236 | – | – | 1.148
288.15 K, m1 = 0.0464 | – | – | 1.156
288.15 K, m1 = 0.0506 | – | 1000.52 | –
288.15 K, m1 = 0.0994 | – | – | 1.172
288.15 K, m1 = 0.1009 | – | 1001.9 | –
288.15 K, m1 = 0.2364 | – | 1005.65 | –
288.15 K, m1 = 0.2464 | – | – | 1.211
288.15 K, m1 = 0.3552 | – | – | 1.241
288.15 K, m1 = 0.499 | – | – | 1.286
288.15 K, m1 = 0.501 | – | 1012.48 | –
288.15 K, m1 = 0.6479 | – | – | 1.335
288.15 K, m1 = 0.6523 | – | 1016.28 | –
288.15 K, m1 = 0.7493 | – | – | 1.362
288.15 K, m1 = 0.7529 | – | 1018.75 | –
288.15 K, m1 = 0.9041 | – | – | 1.433
288.15 K, m1 = 0.9927 | – | – | 1.447
288.15 K, m1 = 1.176 | – | – | 1.502
288.15 K, m1 = 1.2 | – | 1029.02 | –
288.15 K, m1 = 1.497 | – | 1035.68 | –
288.15 K, m1 = 1.542 | – | – | 1.708
288.15 K, m1 = 1.986 | – | 1045.39 | –
288.15 K, m1 = 2.148 | – | – | 1.932
298.15 K, m1 = 0.0236 | – | – | 0.907
298.15 K, m1 = 0.0277 | 0.265 | – | –
298.15 K, m1 = 0.0464 | – | – | 0.913
298.15 K, m1 = 0.0506 | – | 998.426 | –
298.15 K, m1 = 0.0514 | 0.49 | – | –
298.15 K, m1 = 0.0994 | – | – | 0.924
298.15 K, m1 = 0.1003 | 0.898 | – | –
298.15 K, m1 = 0.1009 | – | 999.762 | –
298.15 K, m1 = 0.2364 | – | 1003.4 | –
298.15 K, m1 = 0.2464 | – | – | 0.955
298.15 K, m1 = 0.2497 | 1.97 | – | –
298.15 K, m1 = 0.3502 | 2.58 | – | –
298.15 K, m1 = 0.3552 | – | – | 0.977
298.15 K, m1 = 0.499 | – | – | 1.012
298.15 K, m1 = 0.5001 | 3.36 | – | –
298.15 K, m1 = 0.501 | – | 1010.02 | –
298.15 K, m1 = 0.6479 | – | – | 1.047
298.15 K, m1 = 0.6509 | 4.1 | – | –
298.15 K, m1 = 0.6523 | – | 1013.7 | –
298.15 K, m1 = 0.7493 | – | – | 1.069
298.15 K, m1 = 0.7498 | 4.51 | – | –
298.15 K, m1 = 0.7529 | – | 1016.09 | –
298.15 K, m1 = 0.8997 | 5.07 | – | –
298.15 K, m1 = 0.9041 | – | – | 1.124
298.15 K, m1 = 0.9927 | – | – | 1.133
298.15 K, m1 = 0.9998 | 5.42 | – | –
298.15 K, m1 = 1.176 | – | – | 1.173
298.15 K, m1 = 1.2 | – | 1026.04 | –
298.15 K, m1 = 1.212 | 6.08 | – | –
298.15 K, m1 = 1.497 | – | 1032.48 | –
298.15 K, m1 = 1.507 | 6.81 | – | –
298.15 K, m1 = 1.542 | – | – | 1.292
298.15 K, m1 = 1.986 | – | 1041.87 | –
298.15 K, m1 = 1.998 | 7.67 | – | –
298.15 K, m1 = 2.148 | – | – | 1.493
308.15 K, m1 = 0.0236 | – | – | 0.711
308.15 K, m1 = 0.0464 | – | – | 0.714
308.15 K, m1 = 0.0506 | – | 995.387 | –
308.15 K, m1 = 0.0994 | – | – | 0.722
308.15 K, m1 = 0.1009 | – | 996.694 | –
308.15 K, m1 = 0.2364 | – | 1000.25 | –
308.15 K, m1 = 0.2464 | – | – | 0.757
308.15 K, m1 = 0.3552 | – | – | 0.77
308.15 K, m1 = 0.499 | – | – | 0.793
308.15 K, m1 = 0.501 | – | 1006.72 | –
308.15 K, m1 = 0.6479 | – | – | 0.831
308.15 K, m1 = 0.6523 | – | 1010.32 | –
308.15 K, m1 = 0.7493 | – | – | 0.833
308.15 K, m1 = 0.7529 | – | 1012.65 | –
308.15 K, m1 = 0.9041 | – | – | 0.879
308.15 K, m1 = 0.9927 | – | – | 0.89
308.15 K, m1 = 1.176 | – | – | 0.915
308.15 K, m1 = 1.2 | – | 1022.36 | –
308.15 K, m1 = 1.497 | – | 1028.63 | –
308.15 K, m1 = 1.542 | – | – | 1.005
308.15 K, m1 = 1.986 | – | 1037.78 | –
308.15 K, m1 = 2.148 | – | – | 1.158
318.15 K, m1 = 0.0236 | – | – | 0.596
318.15 K, m1 = 0.0464 | – | – | 0.595
318.15 K, m1 = 0.0506 | – | 991.452 | –
318.15 K, m1 = 0.0994 | – | – | 0.602
318.15 K, m1 = 0.1009 | – | 992.837 | –
318.15 K, m1 = 0.2364 | – | 996.273 | –
318.15 K, m1 = 0.2464 | – | – | 0.645
318.15 K, m1 = 0.3552 | – | – | 0.66
318.15 K, m1 = 0.499 | – | – | 0.661
318.15 K, m1 = 0.501 | – | 1002.68 | –
318.15 K, m1 = 0.6479 | – | – | 0.694
318.15 K, m1 = 0.6523 | – | 1006.2 | –
318.15 K, m1 = 0.7493 | – | – | 0.691
318.15 K, m1 = 0.7529 | – | 1008.52 | –
318.15 K, m1 = 0.9041 | – | – | 0.733
318.15 K, m1 = 0.9927 | – | – | 0.75
318.15 K, m1 = 1.176 | – | – | 0.759
318.15 K, m1 = 1.2 | – | 1018.06 | –
318.15 K, m1 = 1.497 | – | 1024.21 | –
318.15 K, m1 = 1.542 | – | – | 0.835
318.15 K, m1 = 1.986 | – | 1033.17 | –
318.15 K, m1 = 2.148 | – | – | 0.948
